In this test the target is T1, PLK4 (Homo sapiens, UniProt O00444).
T1 sequence (O00444 1-970): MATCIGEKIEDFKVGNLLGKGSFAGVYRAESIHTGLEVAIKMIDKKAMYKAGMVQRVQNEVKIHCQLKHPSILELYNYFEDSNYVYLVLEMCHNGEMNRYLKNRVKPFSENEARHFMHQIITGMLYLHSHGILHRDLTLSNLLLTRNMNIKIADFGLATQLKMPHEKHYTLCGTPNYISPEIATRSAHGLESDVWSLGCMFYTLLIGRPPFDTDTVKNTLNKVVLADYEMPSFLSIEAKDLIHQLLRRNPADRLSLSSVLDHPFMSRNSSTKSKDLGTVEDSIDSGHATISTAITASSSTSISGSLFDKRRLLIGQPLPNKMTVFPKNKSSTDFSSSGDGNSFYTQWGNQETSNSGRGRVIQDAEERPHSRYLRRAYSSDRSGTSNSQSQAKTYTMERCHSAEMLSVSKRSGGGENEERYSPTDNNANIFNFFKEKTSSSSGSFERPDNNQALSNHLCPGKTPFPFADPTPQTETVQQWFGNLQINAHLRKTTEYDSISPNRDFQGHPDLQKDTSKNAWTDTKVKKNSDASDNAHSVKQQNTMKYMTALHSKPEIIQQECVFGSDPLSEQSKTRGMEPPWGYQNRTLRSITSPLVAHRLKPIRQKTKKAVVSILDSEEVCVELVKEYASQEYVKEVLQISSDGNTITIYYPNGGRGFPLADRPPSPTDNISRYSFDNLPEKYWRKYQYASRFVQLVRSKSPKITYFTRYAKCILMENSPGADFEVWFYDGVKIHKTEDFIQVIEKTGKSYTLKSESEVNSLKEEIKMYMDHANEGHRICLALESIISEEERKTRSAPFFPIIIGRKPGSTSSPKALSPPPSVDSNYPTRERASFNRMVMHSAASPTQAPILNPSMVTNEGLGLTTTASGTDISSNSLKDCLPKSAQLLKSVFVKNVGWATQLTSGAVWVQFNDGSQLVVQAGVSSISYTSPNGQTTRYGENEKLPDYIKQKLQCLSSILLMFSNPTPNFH
In words: Activity (IC50) of the Table 1 compounds as PLK4 inhibitors. The format is biochemical. The settings on record: Table 1, IC50 class.

For 55 compounds, IC50 results are on record in patent publication US11612604B2, “Methods of treating cancer with PLK4 inhibitors” (LUDWIG INSTITUTE FOR CANCER RESEARCH LTD, priority 2017, dated 2023).

Molecules are shown by their SMILES.

Take `COc1c(Nc2cc(C)[nH]n2)nc(Sc2ccc(NC(=O)C3CC3)cc2)nc1N1CCN(C)CC1`: the IC50 is below 100 nM.

Compound `Cc1cc(Nc2nc(Sc3ccc(NC(=O)C4CC4)cc3)nc(N3CCOCC3)c2C)n[nH]1` displayed an IC50 below 100 nM.

Compound `COc1c(C)nc(Sc2ccc(NC(=O)C3CC3)cc2)nc1Nc1cc(C)[nH]n1` yielded an IC50 below 100 nM.

With `Cc1cc(Nc2nc(Sc3ccc(NC(=O)C4CC4)cc3)nc3c2C(C)CC3)n[nH]1` (stereo not shown), the IC50 was below 100 nM.

In turn, `Cc1cc(Nc2nc(Sc3ccc(NC(=O)C4CC4)cc3)nc(N3CCN(C(C)C)CC3)c2C)n[nH]1` gave an IC50 below 100 nM.

As to `CC(=O)N1CCN(c2nc(Sc3ccc(NC(=O)C4CC4)cc3)nc(Nc3cc(C)[nH]n3)c2C)CC1`, the IC50 was below 100 nM.

Turning to `COCCN1CCN(c2nc(Sc3ccc(NC(=O)C4CC4)cc3)nc(Nc3cc(C)[nH]n3)c2C)CC1`, the IC50 was below 100 nM.

The compound `COc1c(Nc2cc(C)[nH]n2)nc(Sc2ccc(NC(=O)C3CCCC3)cc2)nc1N1CCN(C(C)=O)CC1` registered an IC50 below 100 nM.

In the case of `COCCN1CCN(c2nc(Sc3ccc(NC(=O)C4CCCC4)cc3)nc(Nc3cc(C)[nH]n3)c2OC)CC1`, the IC50 is below 100 nM.

In turn, `CCOc1c(Nc2cc(C)[nH]n2)nc(Sc2ccc(NC(=O)C3CC3)cc2)nc1N1CCOCC1` registered a half-maximal inhibitory concentration (IC50) below 100 nM.

On to `COc1c(Nc2cc(C)[nH]n2)nc(Sc2ccc(NC(=O)C3CCCC3)cc2)nc1N1CCN(C)CC1`, for which the IC50 is below 100 nM.

Turning to `COc1c(Nc2cc(C)[nH]n2)nc(Sc2ccc(NC(=O)C3CCCC3)cc2)nc1N1CCNCC1`, the IC50 was below 100 nM.

Consider `COc1c(Nc2cc(C)[nH]n2)nc(Sc2ccc(NC(=O)C3CCCC3)cc2)nc1N1CCN(CCN(C)C)CC1`, for which the IC50 was below 100 nM.

Compound `CCOc1c(Nc2cc(C)[nH]n2)nc(Sc2ccc(NC(=O)C3CC3)cc2)nc1N1CCNCC1` registered a concentration for half-maximal inhibition (IC50) below 100 nM.

For the compound `CCOc1c(Nc2cc(C)[nH]n2)nc(Sc2ccc(NC(=O)C3CC3)cc2)nc1N(CC)CC`, the IC50 was below 100 nM.

With `CCOc1c(Nc2cc(C)[nH]n2)nc(Sc2ccc(NC(=O)C3CC3)cc2)nc1N(C)CC`, the IC50 was below 100 nM.

As to `CCOc1c(Nc2cc(C)[nH]n2)nc(Sc2ccc(NC(=O)C3CC3)cc2)nc1N(C)C`, the half-maximal inhibitory concentration (IC50) is below 100 nM.

In turn, `COc1c(Nc2cc(C)[nH]n2)nc(Sc2ccc(NC(=O)C3CC3)cc2)nc1N1CCN(C2CCN(C)CC2)CC1` displayed an IC50 below 100 nM.

On to `COc1c(Nc2cc(C)[nH]n2)nc(Sc2ccc(NC(=O)C3CC3)cc2)nc1N1CCC(C(=O)CN(C)C)CC1`, for which the IC50 is below 100 nM.

As to `COc1c(Nc2cc(C)[nH]n2)nc(Sc2ccc(NC(=O)C3CC3)cc2)nc1N1CCN(C(=O)CCN(C)C)CC1`, the IC50 is below 100 nM.

For the compound `COCC(=O)N1CCN(c2nc(Sc3ccc(NC(=O)C4CC4)cc3)nc(Nc3cc(C)[nH]n3)c2OC)CC1`, the IC50 was below 100 nM.

Compound `COCCC(=O)N1CCN(c2nc(Sc3ccc(NC(=O)C4CC4)cc3)nc(Nc3cc(C)[nH]n3)c2OC)CC1` had an IC50 below 100 nM.

Compound `COc1c(Nc2cc(C)[nH]n2)nc(Sc2ccc(NC(=O)C3CC3)cc2)nc1N1CCN(CC2CC2)CC1` showed an IC50 below 100 nM.

For `CNCCN1CCN(c2nc(Sc3ccc(NC(=O)C4CC4)cc3)nc(Nc3cc(C)[nH]n3)c2OC)CC1`, the IC50 was below 100 nM.

For the compound `CCC1CCc2nc(Sc3ccc(NC(=O)C4CC4)cc3)nc(Nc3cc(C)[nH]n3)c21` (stereo not shown), the IC50 was below 100 nM.

Take `Cc1cc(Nc2nc(Sc3ccc(NC(=O)C4CCC4)cc3)nc(N3CCN(C)CC3)c2C)n[nH]1`: the IC50 was below 100 nM.

On to `CC(=O)Nc1ccc(Sc2nc(Nc3cc(C)[nH]n3)c(C)c(N3CCN(C)CC3)n2)cc1`, for which the IC50 was below 100 nM.

`CCOc1c(Nc2c[nH]c(C)c2)nc(Sc2ccc(NC(=O)C3CCCC3)cc2)nc1N1CCN(C(=O)CCOC)CC1`: the IC50 was 100 to 1000 nM.

For `CC(=O)Nc1ccc(Sc2nc(Nc3cc(C)[nH]n3)c(C)c(N3CCN(CCN(C)C)CC3)n2)cc1`, the half-maximal inhibitory concentration (IC50) was below 100 nM.

Take `COCCN1CCN(c2nc(Sc3ccc(NC(C)=O)cc3)nc(Nc3cc(C)[nH]n3)c2C)CC1`: the IC50 is below 100 nM.

In turn, `CC(=O)Nc1ccc(Sc2nc(Nc3cc(C)[nH]n3)c(C)c(N3CCN(C(C)=O)CC3)n2)cc1` had an IC50 below 100 nM.

Compound `CC(=O)Nc1ccc(Sc2nc(Nc3cc(C)[nH]n3)c(C)c(N3CCNCC3)n2)cc1` came in with an IC50 below 100 nM.

`CC(=O)Nc1ccc(Sc2nc(Nc3cc(C)[nH]n3)c(C)c(N3CCOCC3)n2)cc1`: the IC50 is below 100 nM.

As for `CC(=O)Nc1ccc(Sc2nc(Nc3cc(C)[nH]n3)c(C)c(N3CCN(C4CCN(C)CC4)CC3)n2)cc1`, the IC50 is below 100 nM.

As to `Cc1cc(Nc2nc(Sc3ccc(NC(=O)C4CCCC4)cc3)nc(N3CCN(CCN(C)C)CC3)c2C)n[nH]1`, the IC50 is below 100 nM.

Regarding `COCCN1CCN(c2nc(Sc3ccc(NC(=O)C4CCCC4)cc3)nc(Nc3cc(C)[nH]n3)c2C)CC1`, the IC50 was below 100 nM.

For the compound `CC(=O)N1CCN(c2nc(Sc3ccc(NC(=O)C4CCCC4)cc3)nc(Nc3cc(C)[nH]n3)c2C)CC1`, the IC50 was below 100 nM.

The compound `Cc1cc(Nc2nc(Sc3ccc(NC(=O)C4CCCC4)cc3)nc(N3CCNCC3)c2C)n[nH]1` displayed an IC50 below 100 nM.

With `Cc1cc(Nc2nc(Sc3ccc(NC(=O)C4CCCC4)cc3)nc(N3CCOCC3)c2C)n[nH]1`, the IC50 was below 100 nM.

Turning to `Cc1cc(Nc2nc(Sc3ccc(NC(=O)C4CCCC4)cc3)nc(N3CCN(C4CCN(C)CC4)CC3)c2C)n[nH]1`, the IC50 is below 100 nM.

For the compound `COc1c(Nc2cc(C)[nH]n2)nc(Sc2ccc(NC(C)=O)cc2)nc1N1CCCCC1`, the IC50 was below 100 nM.

In the case of `CC(=O)Nc1ccc(Sc2nc(Nc3cc(C)[nH]n3)c(C)c(N(C)C(C)C)n2)cc1`, the IC50 is below 100 nM.

In the case of `CC(=O)Nc1ccc(Sc2nc(Nc3cc(C)[nH]n3)c(C)c(N3CCN(C(=O)CCN(C)C)CC3)n2)cc1`, the IC50 is below 100 nM.

With `COCC(=O)N1CCN(c2nc(Sc3ccc(NC(C)=O)cc3)nc(Nc3cc(C)[nH]n3)c2C)CC1`, the IC50 is below 100 nM.

`Cc1cc(Nc2nc(Sc3ccc(NC(=O)C4CCCC4)cc3)nc(N(C)C(C)C)c2C)n[nH]1` gave an IC50 below 100 nM.

`COCC(=O)N1CCN(c2nc(Sc3ccc(NC(=O)C4CCCC4)cc3)nc(Nc3cc(C)[nH]n3)c2C)CC1` showed a half-maximal inhibitory concentration (IC50) below 100 nM.

In the case of `Cc1cc(Nc2nc(Sc3ccc(NC(=O)C4CCCC4)cc3)nc(N3CCCCC3)c2C)n[nH]1`, the IC50 was below 100 nM.

Compound `CCN(C)c1nc(Sc2ccc(NC(=O)C3CCCC3)cc2)nc(Nc2cc(C)[nH]n2)c1C` had a 50% inhibitory concentration (IC50) below 100 nM.

`Cc1cc(Nc2nc(Sc3ccc(NC(=O)C4CCCC4)cc3)nc(N(C)C)c2C)n[nH]1` registered an IC50 below 100 nM.

In turn, `COc1c(Nc2cc(C)[nH]n2)nc(Sc2ccc(S(=O)(=O)Cc3cc(F)ccc3F)cc2)nc1N1CCN(CCN(C)C)CC1` displayed an IC50 below 100 nM.

For `COc1c(Nc2cc(C)[nH]n2)nc(Sc2ccc(S(=O)(=O)Cc3cccc(-c4ccccc4)c3)cc2)nc1N1CCN(CCN(C)C)CC1`, the IC50 was below 100 nM.

As to `COc1c(Nc2cc(C)[nH]n2)nc(Sc2ccc(S(=O)(=O)Cc3cccc(C(C)=O)c3)cc2)nc1N1CCN(CCN(C)C)CC1`, the IC50 is below 100 nM.

Consider `COc1c(Nc2cc(C)[nH]n2)nc(Sc2ccc(S(=O)(=O)Cc3cccc([N+](=O)[O-])c3)cc2)nc1N1CCOCC1`, for which the IC50 was below 100 nM.

For `COc1c(Nc2cc(C)[nH]n2)nc(Sc2ccc(S(=O)(=O)Cc3ccccc3)cc2)nc1N1CCN(Cc2ccccc2)CC1`, the IC50 was below 100 nM.

Regarding `COc1c(Nc2cc(C)[nH]n2)nc(Sc2ccc(S(=O)(=O)Cc3ccccc3)cc2F)nc1N1CCN(CCN(C)C)CC1`, the IC50 is below 100 nM.
